Measurements published in PubChem BioAssay AID463204 (Broad Institute, 2010).
Active and inactive are the calls of the source.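 Rule for the calls: active = AC50 no more than ten times the top concentration tested, that is within one log above it; inconclusive = flat curve fit with activity between 30% and 70%, or invalid poor fit; inactive = AC50 beyond ten times the top tested dose.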

System: S. cerevisiae Mot1-301 ts growth rescue, BacTiter-Glo ATP luminescence
Assay: growth rescue of Mot1-301 ts yeast, confirmation, SUMOylation pathway inhibitor project, whole organism, S. cerevisiae, Mot1-301 ts mutant, luminescence, dose retest (AID 463204);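 note: growth at restrictive 38.5 degrees C of Mot1-301 OY566 strain; actives raise luminescence by restoring growth of the ts mutant at high temperature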

Row | Structure (SMILES) | AC50
1 | CCCCN(C)C(=O)CCC(=O)Nc1ccc2nc(N3CCN(C)CC3)cc(C)c2c1 | > 42 µM (inactive)
2 | Cc1nn(C)c(C)c1/C=N/NC(=O)C(C)(C)Oc1ccc(Cl)cc1 | > 42 µM (inactive)
3 | COc1ccccc1C(=O)NCCNc1ccc([N+](=O)[O-])cc1Cl | > 110 µM (inactive)
4 | O=C(COc1ccc([N+](=O)[O-])cc1)Nc1ccc(C(=O)NCc2cccnc2)cc1 | > 42 µM (inactive)
5 | CCOC(=O)c1sc(NC(=O)C(CC)OC(=O)c2ccco2)nc1C (centres undefined) | > 42 µM (inactive)
6 | O=C1CCCC2=C1C(c1ccncc1)c1c(nc(SCc3ccccc3Cl)[nH]c1=O)N2 (centres undefined) | > 42 µM (inactive)
7 | Cc1ccnc(NC(c2cccnc2)c2ccc3cccnc3c2O)c1 (centres undefined) | > 42 µM (inactive)
8 | O=S(=O)(Cc1ccccc1)N1CCN(c2ncccn2)CC1 | > 42 µM (inactive)
9 | CC(=O)NCCc1nc2cc(NC(=O)c3ccc(F)cc3)ccc2n1C | > 42 µM (inactive)
10 | Nc1ccc(N2CCN(c3ccc(F)cc3)CC2)cc1 | > 42 µM (inactive)
11 | Cn1c(NCc2ccco2)nc2c1c(=O)n(Cc1ccc(Cl)cc1)c(=O)n2C | > 42 µM (inactive)
12 | Cc1nn(-c2ccccc2)c(N)c1N=Nc1cccc(S(=O)(=O)N2CCOCC2)c1 | > 42 µM (inactive)
13 | COc1ccc(OC)c(CCNC(=O)c2ccc3c(c2)N(Cc2ccc(F)cc2)CCS3)c1 | > 42 µM (inactive)
14 | COc1ccc(NC(=O)c2ccc(COc3ccccc3OC)o2)cc1OC | > 42 µM (inactive)
15 | COc1ccc(/C=C/C(=O)N2CCC(C(N)=O)CC2)cc1S(=O)(=O)N1CCOCC1 | > 42 µM (inactive)
16 | C/C(=N\N=C(c1ccccc1)c1ccccc1)c1ccco1 | > 42 µM (inactive)
17 | CCOc1ccc(/C=N/NC(=O)c2ccc(CSc3nc4ccccc4[nH]3)cc2)cc1 | > 42 µM (inactive)
18 | COc1ccc2c(CC(=O)Nc3ccc(OC)c(NS(=O)(=O)c4ccc(F)cc4)c3)coc2c1 | > 42 µM (inactive)
19 | CC1(OC(=O)CCc2ccccc2)C(=O)C=C2C=C(c3ccc(C#N)cc3)N(CC3CC3)C=C2C1=O (centres undefined) | > 42 µM (inactive)
20 | COc1cc(CN2CCC(Oc3cc(C(=O)NC4CC4)ccc3OC)CC2)cc(OC)c1 | 34.8 µM
21 | c1ccc(-c2nc(NCc3ccco3)c3ccccc3n2)nc1 | > 42 µM (inactive)
22 | CCCCCCNc1c(C(=O)OCC)c(=O)[nH]c2ccccc12 | > 42 µM (inactive)
23 | CCCCNC(=O)N1CCC(CCC(=O)N(C)Cc2ccccc2)CC1 | > 42 µM (inactive)
24 | CC1(C)Cc2c(cnn2-c2ccc(F)cc2)C(NC(=O)CCCN2CCCCC2=O)C1 (centres undefined) | > 42 µM (inactive)
25 | CCc1ccc2c(c1)C(c1ccc([N+](=O)[O-])cc1)=NNC(c1ccc(C)cc1)=N2 | > 42 µM (inactive)

Row | Structure (SMILES) | AC50
26 | Cc1cc(C(F)F)n2ncc(C(=O)NCCc3ccc(Cl)cc3)c2n1 | > 42 µM (inactive)
27 | COc1ccccc1C(=O)N(NC(=O)Oc1ccccc1)C(C)(C)C | > 42 µM (inactive)
28 | N#Cc1c2ccc([N+](=O)[O-])cc2[n+]([O-])n1-c1ccccc1 | 2.9 µM
29 | Cc1cc(C)n(C(=O)c2ccccc2[N+](=O)[O-])n1 | > 42 µM (inactive)
30 | CCCCN(C(=O)C1=COCCO1)c1c(N)n(Cc2ccccc2)c(=O)[nH]c1=O | > 42 µM (inactive)
31 | C=C(C)Cn1c(N)cc(=O)nc1SCC(=O)Nc1cccc(C(F)(F)F)c1 | > 42 µM (inactive)
32 | CCOC(=O)c1[nH]c2ccc(F)cc2c1NC(=O)CCN1CCOCC1 | > 42 µM (inactive)
33 | COC(=O)CNC(=O)CSc1ccccn1 | > 42 µM (inactive)
34 | COc1ccccc1/C=C/C(=O)N1CCc2cc(OC)c(OC)cc2C1C (centres undefined) | > 42 µM (inactive)
35 | CC(C)(C)c1ccc(C(=O)NCCC(=O)N2CCN(c3ncccn3)CC2)cc1 | > 42 µM (inactive)
36 | COC(=O)C(CC(C)C)NC(=O)CNC(=O)c1ccccc1C (centres undefined) | > 42 µM (inactive)
37 | Cc1nnsc1C(=O)N1CCC(CO)(Cc2ccccc2Cl)CC1 | > 42 µM (inactive)
38 | CCOc1cc(C(N)=O)cc(Cl)c1OCc1ccccc1 | > 42 µM (inactive)
39 | CCN(C(=O)Cn1c(=O)oc2ccccc21)c1cccc(C)c1 | > 42 µM (inactive)
40 | O=C(NCCNc1ccc(Cl)cc1[N+](=O)[O-])c1ccccc1F | > 42 µM (inactive)
41 | CC1CCN(Cc2nc3c(c(=O)n(C)c(=O)n3C)n2CCc2ccccc2)CC1 | > 42 µM (inactive)
42 | CC(C)COc1ccc(C(=O)Nc2ccc([N+](=O)[O-])cc2)cc1 | > 42 µM (inactive)
43 | CCN(CC)c1ccc(/C=N/NC(=O)OC(C)(C)C)cc1 | > 42 µM (inactive)
44 | COCC(=O)n1nc(-c2ccccc2)nc1NCc1ccc(N(C)C)cc1 | > 42 µM (inactive)
45 | Cn1nc(C(=O)NCCc2ccc(Cl)cc2)c2c1-c1ccccc1S(=O)(=O)C2 | > 42 µM (inactive)
46 | COc1ccc(NC(=S)Nc2ccccc2OC)c(OC)c1 | > 42 µM (inactive)
47 | Cc1cccc(C)c1NS(=O)(=O)c1ccc(OCCNS(C)(=O)=O)cc1 | > 42 µM (inactive)
48 | O=C(CSc1nc(-c2ccccc2)nc2ccc(F)cc12)Nc1cccc(C(=O)O)c1 | > 42 µM (inactive)
49 | COc1ccc(NC(=O)C2CCCN2S(=O)(=O)c2cccc3cccnc23)cc1OC (centres undefined) | > 42 µM (inactive)
50 | CN(Cc1cccnc1)Cc1cn[nH]c1-c1ccc(-c2ccccc2)cc1 | > 42 µM (inactive)

Row | Structure (SMILES) | AC50
51 | O=C(c1cc(-c2ccc(Cl)c(Cl)c2)on1)N1CCN(c2ccccc2)CC1 | > 42 µM (inactive)
52 | COC(=O)c1ccc(Cn2cc(Cl)cn2)cc1 | > 42 µM (inactive)
53 | CC(=O)Cc1nsc(Nc2cccc(C)c2)n1 | > 42 µM (inactive)
54 | COC(=O)c1sccc1NC(=S)N1CCCCC1 | > 42 µM (inactive)
55 | CSc1cc(C)c(OCC(=O)Nc2c(C)nn(C)c2C)c(C)c1 | > 42 µM (inactive)
56 | O=C(c1ccco1)N1CCN(C(=O)C2Cc3ccccc3CN2S(=O)(=O)c2ccc(F)cc2)CC1 (centres undefined) | > 42 µM (inactive)
57 | Cc1sc2nc(SCC(=O)NCCOCCO)n(C)c(=O)c2c1C | > 42 µM (inactive)
58 | COc1ccc2c(c1)[C@@]13CCC=C[C@H]1[C@@H](C2)NCC3 | > 42 µM (inactive)
59 | CCn1c(SCC(=O)Nc2ccc(OCc3ccccc3)cc2)nnc1-c1ccco1 | > 42 µM (inactive)
60 | COC(=O)CN(C(=S)Nc1ccc(F)cc1)C1CC(=O)N(c2ccccc2)C1=O (centres undefined) | > 42 µM (inactive)
61 | CCOCCn1c(-c2ccc(OC)cc2)nc2ccccc21 | > 42 µM (inactive)
62 | CC(C)(c1ccccc1)c1ccc(OCCN2CCOCC2)cc1 | > 42 µM (inactive)
63 | COc1ccc(OC(=O)c2ccc(Cl)cc2)c(C(C)=O)c1 | > 42 µM (inactive)
64 | CCC(C)[C@H](NC(=O)OC(C)(C)C)C(=O)NCC1CCC(C(=O)N[C@@H](Cc2ccccc2)C(=O)O)CC1 (some centres undefined) | > 42 µM (inactive)
65 | COc1ccc(N2CCN(C(=O)C3CCCN(S(=O)(=O)c4ccc5c(c4)oc(=O)n5C)C3)CC2)cc1 (centres undefined) | > 21 µM (inactive)
66 | CCCc1cc(=S)n2c([nH]c3ccccc32)c1C#N | > 42 µM (inactive)
67 | CN(C)CCOC(=O)CCc1ccccc1 | > 42 µM (inactive)
68 | CN(C)/C=C/C(=O)c1ccncc1 | > 42 µM (inactive)
69 | CCOCCCNC(=O)C(c1ccc(OC)cc1)N(Cc1ccc2c(c1)OCO2)C(=O)CNC(C)=O (centres undefined) | > 42 µM (inactive)
70 | Cc1nc2ccc(NC(=O)c3ccco3)cc2s1 | > 42 µM (inactive)
71 | COC(=O)c1cc2occc2n1Cc1nc(-c2ccccc2C)oc1C | > 42 µM (inactive)
72 | C=CCNC(=O)c1onc(CSc2cccc(C)c2)c1C(=O)O | > 42 µM (inactive)
73 | O=C1CCC(C(=O)N2CCN(c3ccccc3)CC2)CN1CC1CCCCC1 (centres undefined) | > 42 µM (inactive)
74 | O=C(COC(=O)COc1ccccc1Cl)Nc1ccccc1OC(F)F | > 42 µM (inactive)
75 | COc1ccc(N=C2SC(C(=O)O)CC(=O)N2Cc2ccc(OC)c(OC)c2)cc1 (centres undefined) | > 42 µM (inactive)

Row | Structure (SMILES) | AC50
76 | CCCCCCCCc1nc(SCC(C)=O)n[nH]1 | > 42 µM (inactive)
77 | O=C(NC1CCCC1)C(c1cccs1)N(C(=O)c1ccno1)c1ccccc1 (centres undefined) | > 42 µM (inactive)
78 | COc1ccccc1C(=O)OCC(=O)NC(=O)NCc1ccccc1 | > 42 µM (inactive)
79 | Cc1ccc(S(=O)(=O)N2[C@@H](c3ccccc3F)C(C(=O)O)=CC[C@H]2c2ccc3c(c2)OCO3)cc1 | > 42 µM (inactive)
80 | COc1ccc(CCNC(=O)C/C(C)=N/NC(=O)COc2ccc(C)cc2Br)cc1OC | > 42 µM (inactive)
81 | CC1Cc2ccccc2N1C(=O)Cn1c(=O)cc(O)c2ccccc21 (centres undefined) | > 42 µM (inactive)
82 | O=S(=O)(Cc1ccccc1)NCc1ccccn1 | > 42 µM (inactive)
83 | CCN(C(=O)Nc1ccccc1OC)c1c(N)n(Cc2ccccc2)c(=O)[nH]c1=O | > 42 µM (inactive)
84 | CCCC(=O)NC(C)c1nc2ccccc2[nH]1 (centres undefined) | > 42 µM (inactive)
85 | CCN(CC)c1ncnc2ccc(Br)cc12 | > 42 µM (inactive)
86 | O=C(c1cc(Cl)c(=O)n(Cc2ccc(Cl)cc2)c1)N1CCOCC1 | > 42 µM (inactive)
87 | CCCSc1nnc(NC(=O)CSc2sc3c(O)cc(=O)[nH]c3c2C#N)s1 | > 42 µM (inactive)
88 | CN(c1ccccc1)c1ccc(/C=C/[N+](=O)[O-])cc1 | 5.85 µM
89 | O=c1[nH]cnc2sc3c(c12)CCC3 | > 42 µM (inactive)
90 | O=C(COC(=O)c1c(F)cccc1F)c1ccc[nH]1 | > 42 µM (inactive)
91 | C=CCNC(=O)NC(=O)COC(=O)CCCSc1nc2ccccc2[nH]1 | > 42 µM (inactive)
92 | CN1C(=O)c2ccc(NC(=S)NC(=O)C(C)(C)C)cc2C1=O | > 42 µM (inactive)
93 | Cc1ccccc1NC1=NCCCS1 | > 42 µM (inactive)
94 | CN(C(=O)COC(=O)c1cc(-c2ccc(Cl)s2)nc2ccccc12)C1CCS(=O)(=O)C1 (centres undefined) | > 42 µM (inactive)
95 | COCCN(C(=O)c1csnn1)C(C(=O)NC1CCCCC1)c1ccccc1 (centres undefined) | > 42 µM (inactive)
96 | O=C(COc1ccccc1)Nc1cccc(-c2nnc(-c3ccccc3)o2)c1 | > 42 µM (inactive)
97 | Cn1c(Cn2nnc3ccccc32)nnc1SCC(=O)c1ccc(F)cc1 | > 42 µM (inactive)
98 | O=C(CCSc1ccccc1)Nc1ncccn1 | > 42 µM (inactive)
99 | O=C(c1ccc(COc2ccccc2Cl)o1)N1N=C(C(F)F)CC1(O)C(F)F (centres undefined) | > 42 µM (inactive)
